Experiments:
4T1 cells = experiment: In vivo efficacy in 4T1 cell tumor transplantation mouse model; conditions: 4T1 model
Description: (§1) In this example, the experimental effects of Compound 2 and the control compound PLX3397 (purchased from MedChem Express, China) in MC38 and 4T1 mouse models were tested respectively.
(§2) The experimental procedure was as follows: • (1) C57BL/6J male mice for use as MC38 transplanted tumor model and Balb/c male mice for use as 4T1 transplanted tumor model, which were 6 weeks old, were purchased from GemPharmatech Co., Ltd, Jiangsu. All the above mice were raised in an SPF laboratory, and the drinking water and padding had been sterilized by high pressure sterilization. All operations related to mice were performed under sterile conditions. • (2) On day 0, approximately 1×10^6 MC38 cells (purchased from ATCC) were injected subcutaneously into the left back of each of the C57BL/6J mice, and approximately 1×10^6 4T1 cells (purchased from ATCC) were injected subcutaneously into the left back of each of the Balb/c mice. • (3) For the MC38 mouse model, starting from the 6th day, the corresponding mice were orally administered with methylcellulose (HKI) (purchased from China National Pharmaceutical Group Corporation) solvent once a day (5 mice); Compound 2 at a dose of 50 mg/kg mouse weight once a day (5 mice); PLX3397 at a dose of 50 mg/kg mouse weight once a day (5 mice). For the 4T1 mouse model, starting from the 6th day, the corresponding mice were orally administered with 10% HS-15 (purchased from BASF, Germany) solvent (5 mice); Compound 2 at a dose of 50 mg/kg mouse weight once a day (5 mice); PLX3397 at a dose of 50 mg/kg mouse weight once a day (5 mice). • (4) Starting from the 6th day, the length/width of the subcutaneous tumor was measured with a vernier caliper every day, and the weight of the mice was recorded every day to determine the effects of Compound 2 and control compound PLX3397 on the weight of mice in different model mice. The results are shown in FIGS. 3 and 6. • (5) The growth trends of subcutaneous tumors in mice of different models were statistically analyzed. The tumor volume was calculated using the following method: length×width×width/2 mm^3. The results are shown in FIGS. 4 and 7. • (6) Isolation of tumor-infiltrating lymphocytes: Tumor tissue was first minced (tissue block less than 1 mm^3) with a surgical blade, resuspended in 6 ml of digestion solution (collagenase IV and 0.005% DNaseI enzyme, both purchased from Sigma, USA), and the mixture was transferred to a 15-ml centrifuge tube. The centrifuge tube was then placed in a shaker at 37° C. and digested with shaking at 220 r/min for 2 hours. The cells were sieved through a 200-mesh sieve and collected in a 50-ml centrifuge tube, and centrifuged at 1500 rpm for 10 minutes. The supernatant was then discarded, and 10 ml of DMEM medium (10% FBS) (purchased from GIBCO, USA) was added to the tube to terminate the digestion. The tube was placed in a centrifuge, and centrifuged at 1500 rpm for another 10 minutes. The supernatant was discarded. At the same time, Percoll separation solution (purchased from Millipore, USA) was prepared, and 90% Percoll separation working solution was prepared using 10×PBS. To a 15 ml centrifuge tube, 3-4 ml of 70% Percoll separation solution was added. The cells were resuspended in 4 ml of 40% Percoll separation solution, and the cell mixture was added to the 70% Percoll separation solution. The centrifuge tube was placed in a centrifuge and subjected to density gradient centrifugation at 25° C., 1260 g, for 30 minutes (speed up 5, speed down 0). After the centrifugation, the centrifuge tube was placed on a centrifuge tube rack, the middle leukocyte layer was aspirated with a pipette, and added to 10 ml of PBS, they were mixed well and placed in a centrifuge, and centrifuged at 1500 rpm. The cell supernatant was discarded after 10 min and the cells were resuspended in 5 ml of PBS, centrifuged at 1500 rpm for another 10 min, and the washing process was repeated once. The cells obtained were leukocytes in the tumor tissue. […]

M-NSF-60 = experiment: Proliferation of M-NSF-60 cells with M-CSF (CCK-8, 72 hours); format: cell-based, mouse; conditions: Mus musculus; M-CSF 50 ng/ml in medium, 72 hours incubation, CCK-8; read-out: M-NSF-60 (GI50/μM)
Description: (§3) The incubated cells were detected by CCK-8 (purchased from MedChem Express, China) cell viability detection kit (CCK-8 can be reduced by dehydrogenases in living cells to a highly water-soluble yellow formazan product, and the amount of the generated formazan product is proportional to the number of living cells). The number of living cells was quantified by a microplate reader, and the GI50 for each compound was calculated (the results are shown in Table 2).

TEL-CSF1R-BaF3 = biological target: T1, TEL-CSF1R-BaF3 (Homo sapiens, UniProt P07333); experiment: Proliferation of TEL-CSF1R-BaF3 cells (CCK-8, 72 hours); format: cell-based; conditions: 72 hours incubation, CCK-8
T1 construct: expressed in transfected cells; host or cells: mouse BaF3 cells (ATCC), retroviral transduction with MSCV-Puro vector, IL-3 withdrawn; the other entry of the earlier key: ETV6 (P41212, Transcription factor ETV6)
T1 sequence (P07333 582-910 limits assumed): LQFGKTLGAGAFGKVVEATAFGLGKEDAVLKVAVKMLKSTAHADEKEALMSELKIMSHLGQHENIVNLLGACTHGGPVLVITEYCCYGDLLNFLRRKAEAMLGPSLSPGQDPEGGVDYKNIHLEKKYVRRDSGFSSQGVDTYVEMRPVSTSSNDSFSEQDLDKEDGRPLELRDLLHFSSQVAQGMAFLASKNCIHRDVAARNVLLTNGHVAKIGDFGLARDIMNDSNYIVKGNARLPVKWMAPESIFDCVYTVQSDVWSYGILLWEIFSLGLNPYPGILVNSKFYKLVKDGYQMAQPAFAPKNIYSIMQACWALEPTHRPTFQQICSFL
Description: as §3
The construction method of the TEL-CSF1R-BaF3 cell line (a cell line stably expressing CSF1R kinase) was as follows: the sequence of human CSF1R kinase region was amplified by PCR and inserted into the MSCV-Puro vector (Clontech) with an N-terminal TEL fragment, and stably transferred into mouse BaF3 cells (purchased from ATCC, USA) by a retroviral method, and IL-3 growth factor was removed, finally a cell line dependent on CSF1R transferred protein was obtained.

MC38 cells = experiment: In vivo efficacy in MC38 cell tumor transplantation mouse model
Description: as §1, §2

[1] = 50 mg/kg oral once a day, as days of administration increased

COc1cc2nccc(Oc3ccc(NC(=O)Cc4ccc(Cl)c(C(F)(F)F)c4)cc3)c2cc1OC [Example 2, N-(4-((6,7-dimethoxyquinolin-4-yl)oxy)phenyl)-2-(4-chloro-3-(trifluoromethyl)phenyl)-acetamide]
toxicity (mouse body weight) (4T1 cells; 50 mg/kg oral once a day, FIG. 6): no obvious toxicity | inhibition effect of mouse tumors (4T1 cells; 50 mg/kg oral once a day, FIG. 7): good inhibition effect of mouse tumors | inhibitory effect on mouse tumors compared with PLX3397 (4T1 cells; [1]): superior to the effect of the control compound PLX3397 | proportion of M1 macrophages around the tumor versus solvent group (4T1 cells; 50 mg/kg oral, flow cytometry, FIG. 8): much higher than that in the solvent group | proportion of M1 macrophages in the tumor microenvironment versus PLX3397 group (4T1 cells; same dose 50 mg/kg, FIG. 8): higher than that of the PLX3397 group | GI50 (M-NSF-60): 0.03 µM | GI50 (TEL-CSF1R-BaF3): 0.003 µM | toxicity (mouse body weight) (MC38 cells; 50 mg/kg oral once a day, FIG. 3): no obvious toxicity | inhibition effect of mouse tumors (MC38 cells; 50 mg/kg oral once a day, FIG. 4): good inhibition effect of mouse tumors | inhibitory effect on mouse tumors compared with PLX3397 (MC38 cells; [1]): superior to the effect of the control compound PLX3397 | proportion of M1 macrophages around the tumor versus solvent group (MC38 cells; 50 mg/kg oral, flow cytometry, FIG. 5): much higher than that in the solvent group | proportion of M1 macrophages in the tumor microenvironment versus PLX3397 group (MC38 cells; same dose 50 mg/kg, FIG. 5): higher than that of the PLX3397 group

Reference: patent US20250186452A1, “NOVEL USE OF QUINOLINE COMPOUND” (TARAPEUTICS SCIENCE INC., priority 2022, published 2025)
